Assay results from patent US9844536B2, “3-(1H-imidazo[4,5-C]pyridin-2-yl)-1H-pyrazolo[3,4-C]pyridine and therapeutic uses thereof” (Samumed, LLC, priority 2014, dated 2017).

Tested on: Wnt pathway (Sp5-Luc reporter, SW480 cells)
Assay: Sp5-Luc reporter gene screening assay for Wnt activity in SW480 colon carcinoma cells
Type: cell-based
Details: Homo sapiens
Text: The screening assay for Wnt activity is described as follows. Reporter cell lines can be generated by stably transducing cancer cell lines (e.g., colon cancer) or primary cells (e.g., IEC-6 intestinal cells) with a lentiviral construct that includes a Wnt-responsive promoter driving expression of the firefly luciferase gene.
SW480 colon carcinoma cells were transduced with a lentiviral vector expressing luciferase with a human Sp5 promoter consisting of a sequence of eight TCF/LEF binding sites. SW480 cells stably expressing the Sp5-Luc reporter gene and a hygromycin resistance gene were selected by treatment with 150 μg/ml of hygromycin for 7 days. These stably transduced SW480 cells were expanded in cell culture and used for all further screening activities. For Sp5-Luc reporter gene assays, the cells were plated at 10,000 cells/well in 96-well plates with growth medium containing 10% fetal calf serum and incubated overnight at 37° C. and 5% CO2. Each compound was dissolved in DMSO as a 10 mM stock in standard j-vials and used to prepare compound source plates in dose-response format with 3-fold serial dilutions and a 10 mM top concentration. Compound transfer from serially diluted source plates to assay plates containing the cells was accomplished using a pintool (Multimek 96, Beckman equipped with V&P Scientific FP1S50H pins) based liquid handling protocol. This protocol used a slotted pin to transfer 50 nl of compound from a source plate well to an assay plate well containing 50 μl of cells in growth medium. […] Control wells received 50 nl of DMSO treatment for normalization and calculating IC50 values. The treated cells were incubated at 37° C. and 5% CO2 for an additional forty-two hours. Following incubation, the growth medium was removed and 50 μl of BrightGlo luminescence reagent (Promega) was added to each well of the 96-well assay plates. The plates were placed on an orbital shaker for 5 min and then luminescence was quantified on the Victor3 (Perkin Elmer) plate reader. Readings were normalized to DMSO only treated cells, and normalized activities were utilized for IC50 calculations using the dose-response log (inhibitor) vs. response-variable slope (four parameters) nonlinear regression feature available in GraphPad Prism 5.0 or 6.0.

Row | IC50 [µM] | SMILES
1 | 0.0341 | CCC(=O)Nc1cncc(-c2cc3c(-c4nc5c(-c6cccc(F)c6)nccc5[nH]4)n[nH]c3cn2)c1 [Compound 1, N-(5-(3-(4-(3-Fluorophenyl)-1H-imidazo[4,5-c]pyridin-2-yl)-1H-pyrazolo[3,4-c]pyridin-5-yl)pyridin-3-yl)propionamide]
2 | 0.13 | CCCC(=O)Nc1cncc(-c2cc3c(-c4nc5c(-c6ccc(F)cc6)nccc5[nH]4)n[nH]c3cn2)c1 [Compound 43, N-(5-(3-(4-(4-Fluorophenyl)-1H-imidazo[4,5-c]pyridin-2-yl)-1H-pyrazolo[3,4-c]pyridin-5-yl)pyridin-3-yl)butyramide]
3 | 0.0476 | CC(C)CC(=O)Nc1cncc(-c2cc3c(-c4nc5c(-c6ccccc6F)nccc5[nH]4)n[nH]c3cn2)c1 [Compound 54, N-(5-(3-(4-(2-Fluorophenyl)-1H-imidazo[4,5-c]pyridin-2-yl)-1H-pyrazolo[3,4-c]pyridin-5-yl)pyridin-3-yl)-3-methylbutanamide]
4 | 0.919 | CC(C)(C)CC(=O)Nc1cncc(-c2cc3c(-c4nc5c(-c6ccccc6F)nccc5[nH]4)n[nH]c3cn2)c1 [Compound 68, N-(5-(3-(4-(2-Fluorophenyl)-1H-imidazo[4,5-c]pyridin-2-yl)-1H-pyrazolo[3,4-c]pyridin-5-yl)pyridin-3-yl)-3,3-dimethylbutanamide]
5 | 0.0334 | CCCC(=O)Nc1cncc(-c2cc3c(-c4nc5c(-c6ccccc6F)nccc5[nH]4)n[nH]c3cn2)c1 [Compound 69, N-(5-(3-(4-(2-Fluorophenyl)-1H-imidazo[4,5-c]pyridin-2-yl)-1H-pyrazolo[3,4-c]pyridin-5-yl)pyridin-3-yl)butyramide]
6 | > 10 | c1cncc(-c2nccc3[nH]c(-c4n[nH]c5cnc(-c6cncc(CN7CCCCC7)c6)cc45)nc23)c1 [Compound 93, 5-(5-(Piperidin-1-ylmethyl)pyridin-3-yl)-3-(4-(pyridin-3-yl)-1H-imidazo[4,5-c]pyridin-2-yl)-1H-pyrazolo[3,4-c]pyridine]
7 | 0.0513 | c1ccc(CNCc2cncc(-c3cc4c(-c5nc6c(-c7cccnc7)nccc6[nH]5)n[nH]c4cn3)c2)cc1 [Compound 101, N-Benzyl-1-(5-(3-(4-(pyridin-3-yl)-1H-imidazo[4,5-c]pyridin-2-yl)-1H-pyrazolo[3,4-c]pyridin-5-yl)pyridin-3-yl)methanamine]
8 | 0.199 | CCCCC(=O)Nc1cncc(-c2cc3c(-c4nc5c(-c6ccccn6)nccc5[nH]4)n[nH]c3cn2)c1 [Compound 148, N-(5-(3-(4-(Pyridin-2-yl)-1H-imidazo[4,5-c]pyridin-2-yl)-1H-pyrazolo[3,4-c]pyridin-5-yl)pyridin-3-yl)pentanamide]
9 | 0.14 | CC(C)(C)C(=O)Nc1cncc(-c2cc3c(-c4nc5c(N6CCCCC6)nccc5[nH]4)n[nH]c3cn2)c1 [Compound 164, N-(5-(3-(4-(Piperidin-1-yl)-1H-imidazo[4,5-c]pyridin-2-yl)-1H-pyrazolo[3,4-c]pyridin-5-yl)pyridin-3-yl)pivalamide]
10 | 0.041 | Cc1cn(-c2nccc3[nH]c(-c4n[nH]c5cnc(-c6cncc(NC(=O)CC(C)C)c6)cc45)nc23)cn1 [Compound 184]
11 | 0.118 | CN1CCN(c2nccc3[nH]c(-c4n[nH]c5cnc(-c6cncc(N)c6)cc45)nc23)CC1 [Compound 211, 5-(3-(4-(4-Methylpiperazin-1-yl)-1H-imidazo[4,5-c]pyridin-2-yl)-1H-pyrazolo[3,4-c]pyridin-5-yl)pyridin-3-amine]
12 | > 10 | CC(C)(C)CC(=O)Nc1cncc(-c2cc3c(-c4nc5cnccc5[nH]4)n[nH]c3cn2)c1 [Compound 250, N-(5-(3-(1H-Imidazo[4,5-c]pyridin-2-yl)-1H-pyrazolo[3,4-c]pyridin-5-yl)pyridin-3-yl)-3,3-dimethylbutanamide]
13 | 0.0387 | CC(C)(C)C(=O)Nc1cncc(-c2cc3c(-c4nc5c(-c6ccoc6)nccc5[nH]4)n[nH]c3cn2)c1 [Compound 294, N-(5-(3-(4-(Furan-3-yl)-1H-imidazo[4,5-c]pyridin-2-yl)-1H-pyrazolo[3,4-c]pyridin-5-yl)pyridin-3-yl)pivalamide]
14 | 0.0286 | CCC(=O)Nc1cncc(-c2cc3c(-c4nc5c(-c6cccs6)nccc5[nH]4)n[nH]c3cn2)c1 [Compound 313, N-(5-(3-(4-(Thiophen-2-yl)-1H-imidazo[4,5-c]pyridin-2-yl)-1H-pyrazolo[3,4-c]pyridin-5-yl)pyridin-3-yl)propionamide]
15 | 0.359 | CC(C)CC(=O)Nc1cncc(-c2cc3c(-c4nc5c(-c6cccs6)nccc5[nH]4)n[nH]c3cn2)c1 [Compound 314, 3-Methyl-N-(5-(3-(4-(thiophen-2-yl)-1H-imidazo[4,5-c]pyridin-2-yl)-1H-pyrazolo[3,4-c]pyridin-5-yl)pyridin-3-yl)butanamide]
16 | 0.0378 | O=C(Nc1cncc(-c2cc3c(-c4nc5c(-c6cccs6)nccc5[nH]4)n[nH]c3cn2)c1)C1CCC1 [Compound 332, N-(5-(3-(4-(Thiophen-2-yl)-1H-imidazo[4,5-c]pyridin-2-yl)-1H-pyrazolo[3,4-c]pyridin-5-yl)pyridin-3-yl)cyclobutanecarboxamide]
17 | 0.255 | Fc1cccc(-c2nccc3[nH]c(-c4n[nH]c5cnc(-c6cncc(OC7CCCCC7)c6)cc45)nc23)c1 [Compound 943, 5-(5-(Cyclohexyloxy)pyridin-3-yl)-3-(4-(3-fluorophenyl)-1H-imidazo[4,5-c]pyridin-2-yl)-1H-pyrazolo[3,4-c]pyridine]
18 | > 10 | Fc1cccc(-c2nccc3[nH]c(-c4n[nH]c5cnc(-c6cncc(OC7CCNCC7)c6)cc45)nc23)c1 [Compound 944, 3-(4-(3-Fluorophenyl)-1H-imidazo[4,5-c]pyridin-2-yl)-5-(5-(piperidin-4-yloxy)pyridin-3-yl)-1H-pyrazolo[3,4-c]pyridine]
19 | > 10 | Fc1cccc(-c2nccc3[nH]c(-c4n[nH]c5cnc(-c6cncc(OCCN7CCCC7)c6)cc45)nc23)c1 [Compound 946, 3-(4-(3-Fluorophenyl)-1H-imidazo[4,5-c]pyridin-2-yl)-5-(5-(2-(pyrrolidin-1-yl)ethoxy)pyridin-3-yl)-1H-pyrazolo[3,4-c]pyridine]
20 | 2.01 | Fc1cccc(-c2nccc3[nH]c(-c4n[nH]c5cnc(-c6cncc(OCc7ccccc7)c6)cc45)nc23)c1 [Compound 950, 5-(5-(Benzyloxy)pyridin-3-yl)-3-(4-(3-fluorophenyl)-1H-imidazo[4,5-c]pyridin-2-yl)-1H-pyrazolo[3,4-c]pyridine]
21 | 1.04 | O=C(CC1CCCCC1)Nc1cncc(-c2cc3c(-c4nc5c(-c6cccc(F)c6)nccc5[nH]4)n[nH]c3cn2)c1 [Compound 951, 2-Cyclohexyl-N-(5-(3-(4-(3-fluorophenyl)-1H-imidazo[4,5-c]pyridin-2-yl)-1H-pyrazolo[3,4-c]pyridin-5-yl)pyridin-3-yl)acetamide]
22 | 0.032 | Fc1cccc(-c2nccc3[nH]c(-c4n[nH]c5cnc(-c6ccncc6)cc45)nc23)c1 [Compound 952, 3-(4-(3-Fluorophenyl)-1H-imidazo[4,5-c]pyridin-2-yl)-5-(pyridin-4-yl)-1H-pyrazolo[3,4-c]pyridine]
23 | 2.06 | CC(C)CC(=O)Nc1cncc(-c2cc3c(-c4nc5c(-c6cc(F)cc(OCCN(C)C)c6)nccc5[nH]4)n[nH]c3cn2)c1 [Compound 1262, N-(5-(3-(4-(3-(2-(Dimethylamino)ethoxy)-5-fluorophenyl)-1H-imidazo[4,5-c]pyridin-2-yl)-1H-pyrazolo[3,4-c]pyridin-5-yl)pyridin-3-yl)-3-methylbutanamide]
24 | 4.22 | CC(C)CC(=O)Nc1cncc(-c2cc3c(-c4nc5c(-c6cc(F)cc(OCCN7CCCC7)c6)nccc5[nH]4)n[nH]c3cn2)c1 [Compound 1306, N-(5-(3-(4-(3-Fluoro-5-(2-(pyrrolidin-1-yl)ethoxy)phenyl)-1H-imidazo[4,5-c]pyridin-2-yl)-1H-pyrazolo[3,4-c]pyridin-5-yl)pyridin-3-yl)-3-methylbutanamide]
